One may read the IC50 as the concentration at which inhibition is half-maximal. Usually melting point stands for the temperature of the solid-liquid transition.

Data set [1] has as its system HSP90 client protein Her2 in MCF7 cells. Nature of the data set: Measurement test for amount of HSP90 client protein Her2 (Western blotting). Format: cell-based. Particulars: MCF7 cells treated 16 hours at 3-5 concentrations. The protocol: (§1) MCF7 cells (American Type Culture Collection, Rockville, Md.) were treated with the compounds of the present invention at various concentrations for 16 hours to confirm that the HSP90 inhibitors of the present invention induce a depression of intracellular concentration of the client protein or target polypeptide that bind to HSP90. The amount of the HSP90 client protein Her2 and ERα was evaluated by the Western blotting method.
(§2) One million cells were seeded in a 6 cm dish, and 24 hours later the compounds of the present invention (Example 1-2, Example 2-1, Example 2-13, Example 2-2, Example 3-4, Example 2-5, Example 3-16, Example 3-6, Example 2-7, Example 3-27, Example 2-10 and Example 3-18) were added. Cells treated with the compounds were washed, mixed with 150 μl of lysis buffer (RIPA, 150 mM NaCl, 1% NP40, 0.1% deoxycholate (sodium salt), 0.1% SDS, 1 mM EDTA, 10 mM Tris-HCl (pH 8.0)) and incubated at 4° C. for 30 minutes. The cell lysates were centrifuged (15,000 rpm, 20 minutes) and protein (20 μg) of the supernatant was subjected to SDS polyacrylamide gel electrophoresis (SDS-PAGE). After finishing the electrophoresis, proteins in the gel were transferred to a PVDF membrane. The membrane after the transfer was treated with a primary antibody against the HSP90 client protein (anti Her2 or anti ERa antibody, both from Santa Cruz Biotechnology, Santa Cruz, Calif.), then treated with secondary antibodies (anti-rabbit Ig, horse radish peroxidase conjugated F(ab′)2 fragment (derived from donkey): Amersham Biosciences, UK Limited, Buckinghamhshire, UK.) and then the amount of the client protein was detected as the intensity of chemiluminescence signal with a chemiluminescence reagent (ECL: Amersham Biosciences UK Limited, Buckinghamshire, UK).
Background: Immunoblotting shows a protein as a band on a membrane.

Another data set addresses rHSP90. Nature of the data set: HSP90 binding assay (BIACORE SPR; inhibition of binding between rHSP90 and fixed herbimycin A). The conditions noted are these: concentration inhibiting binding between rHSP90 (50 μg/mL) and fixed herbimycin A by 50%, BIACORE-X SPR; read-out: HSP90 inhibitory activity IC50.
Data set [2] relates to HSP90 client protein ERα in MCF7 cells. Nature of the data set: Measurement test for amount of HSP90 client protein ERα (Western blotting). The class given is cell-based. Particulars: MCF7 cells treated 16 hours at 3-5 concentrations. The method, then: as §1, §2
The test system of data set [3] is Human breast cancer cells (MCF7). Nature of the data set: Antiproliferative activity on MCF7 cells (methylene blue method). The conditions noted are these: Homo sapiens, MCF7, 72 h, MCF7 cells, 72 hours treatment, 660 nm absorbance after methylene blue staining; read-out: Antiproliferative activity IC50. Format: cell-based.
For a further data set, the system named is Human lung cancer H460. Nature of the data set: Antitumor effect on nude mice transplanted with human lung cancer H460. The class given is in vivo. The conditions noted are these: tail vein, 5 days continuous, day 8, starting day = 1.0. The protocol:
Antitumor Effect on Nude Mice Transplanted with Human Lung Cancer
Human lung cancer H460 tumor fragment, which had been passaged subcutaneously in nude mice, was made into about 3 mm fragment and transplanted subcutaneously to the back of nude mice using a trocar. When the tumor volume grew to about 50 mm^3 or above, the compound of the present invention was administered to the tail vein once a day for 5 or 7 days every day. The compound of the present invention was dissolved in DMSO, mixed with TWEEN 80, and then diluted with a 5% glucose injection solution and used. The vehicle of the compound was administered to the control group of OH-a01. The control groups in other experiments were not treated. The tumor volume was measured on the first administration day and on the evaluation day (7 or 8 days after the start of the administration), and the relative tumor volume of the evaluation day was obtained from the tumor volume on the first administration day. Further, the tumor volume was calculated by measuring the major axis (Lmm) and minor axis (Wmm) of the tumor and by the formula (L×W^2)/2.
Relative tumor volume represents the average relative tumor volume on day 7 after the start of the administration, assuming the tumor volume of the starting day is 1.0.
Relative tumor volume represents the average relative tumor volume on day 8 after the start of the administration, assuming the tumor volume of the starting day is 1.0.

Structures can show the parent of a compound that is named as a salt.

With `COc1ccc(-n2c(-c3cc(C(C)C)c(O)cc3O)n[nH]c2=O)cc1` [OH-a08, 5-(2,4-dihydroxy-5-isopropyl-phenyl)-4-(4-methoxy-phenyl)-2,4-dihydro-[1,2,4]triazol-3-one], the melting point is 272 °C (dec.). The “amount of HSP90 client protein Her2” value in data set [1] was “depression”. For the same compound, on rHSP90, the IC50 worked out at 120 nM. Moreover, in data set [2], the “amount of HSP90 client protein ERα” value is on record as “depression”. Also, the IC50 in data set [3] turned out to be 11 nM. For the same compound, the “Relative tumor volume (Average ± SD)” value with Human lung cancer H460 (Table 9, 100 mg/kg/day, control group 4.6 ± 3.1) is recorded as 1.9 ± 1.0. In addition, in the data set with Human lung cancer H460 (Table 9, 200 mg/kg/day, control group 4.6 ± 3.1), the “Relative tumor volume (Average ± SD)” value stood at 1.1 ± 0.3.

For the compound `COc1ccc(-n2c(-c3cc(C(C)C)c(O)cc3O)nnc2S(=O)(=O)CCCN2CCCCC2)cc1` [SFN3-a08, 4-isopropyl-6-[4-(4-methoxy-phenyl)-5-(3-piperidin-1-yl-propane-1-sulfonyl)-4H-[1,2,4]triazol-3-yl]-benzene-1,3-diol], in data set [1], the “amount of HSP90 client protein Her2” value is recorded as “depression”. The results for the IC50 (at rHSP90; in data set [3]) were 590 nM and 44 nM, respectively. The “amount of HSP90 client protein ERα” value in data set [2] is “depression”. For the same compound, the “Relative tumor volume (Average ± SD)” value in the data set with Human lung cancer H460 (Table 10, 100 mg/kg/day, control group 6.5 ± 2.0) came out at 5.4 ± 1.3; in the data set on Human lung cancer H460 (Table 10, 150 mg/kg/day, control group 6.5 ± 2.0) it was 2.9 ± 0.6.

Take `CC(C)c1cc(-c2n[nH]c(=O)n2C(C)C)c(O)cc1O` [OH-a21, 5-(2,4-dihydroxy-5-isopropyl-phenyl)-4-isopropyl-2,4-dihydro-[1,2,4]triazol-3-one]: the melting point is 261 to 262 °C (dec.). In addition, the “amount of HSP90 client protein Her2” value in data set [1] was “depression”. Also, on rHSP90, the IC50 came to 130 nM. In addition, in data set [2], the “amount of HSP90 client protein ERα” value is on record as “depression”. Besides, the IC50 in data set [3] was found to be 38 nM.

As to `CC(C)c1cc(-c2n[nH]c(=O)n2-c2ccc(CN3CCOCC3)cc2)c(O)cc1O` [OH-a02, 4-{5-hydroxy-4-[4-(morpholin-4-ylmethyl)-phenyl]-4H-[1,2,4]triazol-3-yl}-6-isopropyl-benzene-1,3-diol], in data set [1], the “amount of HSP90 client protein Her2” value is “depression”. For the same compound, the IC50 on rHSP90 worked out at 180 nM; in data set [3] it was 16 nM. Moreover, the “amount of HSP90 client protein ERα” value in data set [2] is “depression”. Further, the “Relative tumor volume (Average ± SD)” value with Human lung cancer H460 (Table 9, 75 mg/kg/day, control group 4.6 ± 3.1) was determined as 3.5 ± 2.3; with Human lung cancer H460 (Table 9, 150 mg/kg/day, control group 4.6 ± 3.1) it was 2.1 ± 0.1.

In the case of `COc1ccc(-n2c(-c3cc(C(C)C)c(O)cc3O)nnc2S(=O)(=O)CCCN(C)C)cc1` (as salt: hydrochloride) [SFN2-a08, 4-[5-(3-dimethylamino-propane-1-sulfonyl)-4-(4-methoxy-phenyl)-4H-[1,2,4]triazol-3-yl]-6-isopropyl-benzene-1,3-diol], the melting point was 233 °C (dec.).
